Entries after “also recorded” stand apart in the source; their conditions may differ.
Columns and labels:
CDK1-cyclin B1 = biological target: T1, CDK1-cyclin B1 (Homo sapiens, UniProt P06493); assay: in vitro kinase assay, CDK1-cyclin B1 phosphorylation of PBK/TOPK; format: biochemical; conditions: peptide 0-20 μM
T1 construct: purchased New England Biolabs
Description: After 30 minutes incubation at 30° C., the reactions were terminated by addition of SDS-sample buffer. After boiling, the protein samples were electrophoresed and autoradiographed.
(§1) To inhibit the phosphorylation of PBK/TOPK at Thr9 by CDK1-cyclin B1, we designed permeable peptide (pp1-18) identical to the N-terminus (1-18 amino acids) of PBK/TOPK ([…]-G-[…]: SEQ ID NO: 99) was synthesized by Sigma-Aldrich. The efficacy of the peptide blocking the CDK1-cyclin B1-induced phosphorylation of PBK/TOPK was estimated by in vitro kinase assay according to in vitro kinase section. […] The phosphorylation of PBK/TOPK and cyclin B1 proteins were observed by SDS-PAGE and autoradiography. For the cell proliferation assay, T47D and HMEC cells were seeded at 1.3×10^4 cells in a 12-well plate, respectively. At the following day, each concentration (0, 2.5, 5, and 10 μM) of pp1-18 peptide was treated everyday, and cell viability was measured by MTT assay at 5th day. A significance of the pp 1-18 peptide to suppress T47D cell growth was statistically evaluated by the Student's t-test. To inhibit the phosphorylation of PBK/TOPK in mitotic cells by using pp1-18 peptide, T47D cells were seeded at 1×10^5 cells in a 60 mm dish. […]

HMEC cells = assay: cell proliferation MTT assay with pp1-18 peptide; format: cell-based, human; conditions: 0, 2.5, 5 and 10 μM every day; MTT at 5th day
From the text: as §1, with “dish. Two days after incubation, both nocodazole (0.3 μg/mL) and the permeable peptide (10 μM) were treated for further 18 or 24 hours before collection, and then phosphorylation of PBK/TOPK was investigated by western blotting using anti-PBK/TOPK monoclonal antibody and FACS analysis.” for “dish.”

T47D cells [1] = assay: cell proliferation MTT assay with pp1-18 peptide; format: cell-based, human; conditions: 0, 2.5, 5 and 10 μM every day; MTT at 5th day
From the text: as §1, with “dish. Two days after incubation, both nocodazole (0.3 μg/mL) and the permeable peptide (10 μM) were treated for further 18 or 24 hours before collection, and then phosphorylation of PBK/TOPK was investigated by western blotting using anti-PBK/TOPK monoclonal antibody and FACS analysis.” for “dish.”

PBK/TOPK = assay: western blot of PBK/TOPK phosphorylation in nocodazole-treated mitotic cells with pp1-18; format: cell-based, human; conditions: T47D; nocodazole plus 10 μM peptide, 18 or 24 hours
From the text: as §1, with “dish. Two days after incubation, both nocodazole (0.3 μg/mL) and the permeable peptide (10 μM) were treated for further 18 or 24 hours before collection, and then phosphorylation of PBK/TOPK was investigated by western blotting using anti-PBK/TOPK monoclonal antibody and FACS analysis.” for “dish.”

T47D cells [2] = assay: FACS cell cycle analysis with nocodazole and pp1-18; format: cell-based, human; conditions: 24 hours after treatment of nocodazole, 10 μM peptide
From the text: as §1, with “dish. Two days after incubation, both nocodazole (0.3 μg/mL) and the permeable peptide (10 μM) were treated for further 18 or 24 hours before collection, and then phosphorylation of PBK/TOPK was investigated by western blotting using anti-PBK/TOPK monoclonal antibody and FACS analysis.” for “dish.”

T47D cells [3] = assay: phase contrast microscopy of cells treated with pp1-18; format: cell-based, human; conditions: 50 μM peptide

T1 sequence (P06493 whole entry): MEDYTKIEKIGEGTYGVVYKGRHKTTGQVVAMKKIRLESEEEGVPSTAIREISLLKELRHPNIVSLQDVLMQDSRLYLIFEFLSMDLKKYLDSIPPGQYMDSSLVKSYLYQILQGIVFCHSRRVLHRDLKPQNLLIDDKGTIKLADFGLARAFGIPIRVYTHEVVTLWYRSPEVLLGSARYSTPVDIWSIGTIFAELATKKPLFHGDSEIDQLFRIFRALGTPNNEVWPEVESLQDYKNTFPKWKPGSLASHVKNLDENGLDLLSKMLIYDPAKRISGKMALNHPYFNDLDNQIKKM
T1 sequence (P14635 whole entry partner): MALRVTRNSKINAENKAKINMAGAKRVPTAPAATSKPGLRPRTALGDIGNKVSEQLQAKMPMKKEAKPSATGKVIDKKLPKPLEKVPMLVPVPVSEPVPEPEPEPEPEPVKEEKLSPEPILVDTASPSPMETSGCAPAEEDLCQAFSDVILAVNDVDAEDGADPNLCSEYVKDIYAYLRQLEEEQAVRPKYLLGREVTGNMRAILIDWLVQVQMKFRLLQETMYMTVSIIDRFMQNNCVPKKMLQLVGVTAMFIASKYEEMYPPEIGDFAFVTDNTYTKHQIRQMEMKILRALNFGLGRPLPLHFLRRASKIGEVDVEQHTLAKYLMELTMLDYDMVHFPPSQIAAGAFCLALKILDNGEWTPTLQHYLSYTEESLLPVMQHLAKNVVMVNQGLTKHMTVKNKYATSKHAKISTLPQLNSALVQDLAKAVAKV

Substance: RRRRRRRRRRR-G-MEGISNFKTPSKLSEKKK (RRRRRRRRRRRGMEGISNFKTPSKLSEKKK; N-terminal poly-arginine (R11) and glycine linker; An artificialy designed dominant negative) [pp1-18]
- phosphorylation of recombinant PBK/TOPK protein by CDK1-cyclin B1 (CDK1-cyclin B1): diminished in dose-dependent manner
- growth of HMEC cells (HMEC cells): did not affect the growth; also recorded: no effect
- growth of T47D breast cancer cells (T47D cells [1]): significantly suppressed cell growth; also recorded: clearly suppressed the growth
- phosphorylation of PBK/TOPK in mitotic cells (PBK/TOPK): drastically reduced
- shift to G2/M phase of cell cycle (T47D cells [2]): blocked shift to G2/M phase
- cellular morphology (T47D cells [3]): long intercellular bridge; also recorded: prolonged midbodies by abnormal cytokinesis

— patent publication US8673548B2, “Genes and polypeptides relating to breast cancers” (Oncotherapy Science, Inc., priority 2006, dated 2014)
